Data from patent US9944602B2, “Piperidinone herbicides” (E. I. DU PONT DE NEMOURS AND COMPANY, priority 2014, dated 2018).

What was measured:
Type in all cases: in vivo
[1] = test system: barnyardgrass (Echinochloa crus-galli); experiment: Test A preemergence barnyardgrass; conditions: 0 to 100 scale; for Barnyardgrass plant response rating: 125 g ai/ha, 0 no effect, 100 complete control; for Plant response rating, Barnyardgrass: 500 g ai/ha, 0 is no effect, 100 is complete control
Procedure, shortened: (§1)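 Both application timings used the same loam-and-sand medium and the same solvent–surfactant formulation. Postemergence plants were 2–10 cm at the one- to two-leaf stage. After roughly 10 d of greenhouse growth, injury was judged visually against untreated plants, where 0 is no effect and 100 complete control.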

[2] = test system: crabgrass, large (large crabgrass, Digitaria sanguinalis); experiment: Test A preemergence crabgrass, large; conditions: 0 to 100 scale; for Crabgrass, Large plant response rating: 125 g ai/ha, 0 no effect, 100 complete control; for Plant response rating, Crabgrass, Large: 500 g ai/ha, 0 is no effect, 100 is complete control
Description: (§2) Seeds of plant species selected from barnyardgrass (Echinochloa crus-galli), kochia (Kochia scoparia), ragweed (common ragweed, Ambrosia elatior), ryegrass, Italian (Italian ryegrass, Lolium multiflorum), crabgrass, large (large crabgrass, Digitaria sanguinalis), foxtail, giant (giant foxtail, Setaria faberii), morningglory (Ipomoea spp.), pigweed (Amaranthus retroflexus), velvetleaf (Abutilon theophrasti), wheat (Triticum aestivum), and corn (Zea mays) were planted into a blend of loam soil and sand and treated preemergence with a directed soil spray using test chemicals formulated in a non-phytotoxic solvent mixture which included a surfactant.
(§3) At the same time, plants selected from these crop and weed species and also blackgrass (Alopecurus myosuroides), and galium (catchweed bedstraw, Galium aparine) were planted in pots containing the same blend of loam soil and sand and treated with postemergence applications of test chemicals formulated in the same manner. Plants ranged in height from 2 to 10 cm and were in the one- to two-leaf stage for the postemergence treatment. Treated plants and untreated controls were maintained in a greenhouse for approximately 10 d, after which time all treated plants were compared to untreated controls and visually evaluated for injury. Plant response ratings, summarized in Table A, are based on a 0 to 100 scale where 0 is no effect and 100 is complete control. A dash (-) response means no test result.

[3] = test system: foxtail, giant (giant foxtail, Setaria faberii); experiment: Test A preemergence foxtail, giant; conditions: 0 to 100 scale, 0 no effect, 100 complete control
Procedure, shortened: as §1

[4] = test system: morningglory (Ipomoea spp.); experiment: Test A preemergence morningglory; conditions: 0 to 100 scale, 0 no effect, 100 complete control
Description: as §2, §3

[5] = test system: pigweed (Amaranthus retroflexus); experiment: Test A preemergence pigweed; conditions: 0 to 100 scale, 0 no effect, 100 complete control
Procedure, shortened: as §1

[6] = test system: velvetleaf (Abutilon theophrasti); experiment: Test A preemergence velvetleaf; conditions: 0 to 100 scale, 0 no effect, 100 complete control
Description: as §2, §3

[7] = test system: wheat (Triticum aestivum); experiment: Test A preemergence wheat; conditions: 0 to 100 scale, 0 no effect, 100 complete control
Description: as §2, §3

corn (Zea mays) [8] = experiment: Test A preemergence corn; conditions: 0 to 100 scale; for Corn plant response rating: 125 g ai/ha, 0 no effect, 100 complete control; for Plant response rating, Corn: 500 g ai/ha, 0 is no effect, 100 is complete control
Description: as §2, §3

[9] = test system: barnyardgrass (Echinochloa crus-galli); experiment: Test A postemergence barnyardgrass; conditions: 0 to 100 scale, 0 is no effect, 100 is complete control
Procedure, shortened: as §1

[10] = test system: crabgrass, large (large crabgrass, Digitaria sanguinalis); experiment: Test A postemergence crabgrass, large; conditions: 0 to 100 scale, 0 is no effect, 100 is complete control
Description: as §2, §3

[11] = test system: foxtail, giant (giant foxtail, Setaria faberii); experiment: Test A postemergence foxtail, giant; conditions: 0 to 100 scale, 0 is no effect, 100 is complete control
Procedure, shortened: as §1

[12] = test system: morningglory (Ipomoea spp.); experiment: Test A postemergence morningglory; conditions: 0 to 100 scale, 0 is no effect, 100 is complete control
Description: as §2, §3

[13] = test system: pigweed (Amaranthus retroflexus); experiment: Test A postemergence pigweed; conditions: 0 to 100 scale, 0 is no effect, 100 is complete control
Procedure, shortened: as §1

[14] = test system: velvetleaf (Abutilon theophrasti); experiment: Test A postemergence velvetleaf; conditions: 0 to 100 scale, 0 is no effect, 100 is complete control
Description: as §2, §3

[15] = test system: wheat (Triticum aestivum); experiment: Test A postemergence wheat; conditions: 0 to 100 scale, 0 is no effect, 100 is complete control
Procedure, shortened: as §1

corn (Zea mays) [16] = experiment: Test A postemergence corn; conditions: 0 to 100 scale, 0 is no effect, 100 is complete control
Procedure, shortened: as §1

rice (Oryza sativa) = experiment: Test B flooded paddy test rice; conditions: Table B, Flood, 250 g ai/ha, scale 0 to 100
Procedure, shortened: (§4)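 Plants at 2-leaf stage in pots flooded 3 cm above soil; compounds applied directly into paddy water, depth kept throughout.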

[17] = test system: sedge, umbrella (small-flower umbrella sedge, Cyperus difformis); experiment: Test B flooded paddy test sedge, umbrella; conditions: Table B, Flood, 250 g ai/ha, scale 0 to 100
Procedure, shortened: as §4

[18] = test system: ducksalad (Heteranthera limosa); experiment: Test B flooded paddy test ducksalad; conditions: Table B, Flood, 250 g ai/ha, scale 0 to 100
Procedure, shortened: as §4

[19] = test system: barnyardgrass (Echinochloa crus-galli); experiment: Test B flooded paddy test barnyardgrass; conditions: Table B, Flood, 250 g ai/ha, scale 0 to 100
Procedure, shortened: as §4

O=C1NCCC(c2ccc(F)c(F)c2)C1C(=O)Nc1ccccc1F (racemic) [Compound 1]
Barnyardgrass plant response rating [1]: 0
Plant response rating, Barnyardgrass [1]: 70
Crabgrass, Large plant response rating [2]: 80
Plant response rating, Crabgrass, Large [2]: 90
Foxtail, Giant plant response rating ([3]; 125 g ai/ha): 30
Foxtail, Giant plant response rating ([3]; 500 g ai/ha): 90
Morningglory plant response rating ([4]; 125 g ai/ha): 0
Morningglory plant response rating ([4]; 500 g ai/ha): 0
Pigweed plant response rating ([5]; 125 g ai/ha): 0
Pigweed plant response rating ([5]; 500 g ai/ha): 0
Velvetleaf plant response rating ([6]; 125 g ai/ha): 0
Velvetleaf plant response rating ([6]; 500 g ai/ha): 0
Wheat plant response rating ([7]; 125 g ai/ha): 0
Wheat plant response rating ([7]; 500 g ai/ha): 0
Corn plant response rating (corn (Zea mays) [8]): 0
Plant response rating, Corn (corn (Zea mays) [8]): 0
Plant response rating, Barnyardgrass ([9]; 125 g ai/ha): 0
Plant response rating, Barnyardgrass ([9]; 500 g ai/ha): 50
Plant response rating, Crabgrass, Large ([10]; 125 g ai/ha): 30
Plant response rating, Crabgrass, Large ([10]; 500 g ai/ha): 70
Plant response rating, Foxtail, Giant ([11]; 125 g ai/ha): 0
Plant response rating, Foxtail, Giant ([11]; 500 g ai/ha): 0
Plant response rating, Morningglory ([12]; 125 g ai/ha): 0
Plant response rating, Morningglory ([12]; 500 g ai/ha): 0
Plant response rating, Pigweed ([13]; 125 g ai/ha): 0
Plant response rating, Pigweed ([13]; 500 g ai/ha): 0
Plant response rating, Velvetleaf ([14]; 125 g ai/ha): 0
Plant response rating, Velvetleaf ([14]; 500 g ai/ha): 0
Plant response rating, Wheat ([15]; 125 g ai/ha): 0
Plant response rating, Wheat ([15]; 500 g ai/ha): 0
Plant response rating, Corn (corn (Zea mays) [16]; 125 g ai/ha): 0
Plant response rating, Corn (corn (Zea mays) [16]; 500 g ai/ha): 0
Plant response rating (rice (Oryza sativa)): 0
Plant response rating [17]: 0
Plant response rating [18]: 0
Plant response rating [19]: 0

O=C1NCCC(c2ccccc2)C1C(=O)Nc1ccccc1C(F)(F)F (racemic) [Compound 2]
Barnyardgrass plant response rating [1]: 0
Plant response rating, Barnyardgrass [1]: 20
Crabgrass, Large plant response rating [2]: 70
Plant response rating, Crabgrass, Large [2]: 90
Foxtail, Giant plant response rating ([3]; 125 g ai/ha): 10
Foxtail, Giant plant response rating ([3]; 500 g ai/ha): 70
Morningglory plant response rating ([4]; 125 g ai/ha): 0
Morningglory plant response rating ([4]; 500 g ai/ha): 0
Pigweed plant response rating ([5]; 125 g ai/ha): 0
Pigweed plant response rating ([5]; 500 g ai/ha): 0
Velvetleaf plant response rating ([6]; 125 g ai/ha): 0
Velvetleaf plant response rating ([6]; 500 g ai/ha): 0
Wheat plant response rating ([7]; 125 g ai/ha): 0
Wheat plant response rating ([7]; 500 g ai/ha): 0
Corn plant response rating (corn (Zea mays) [8]): 0
Plant response rating, Corn (corn (Zea mays) [8]): 0
Plant response rating, Barnyardgrass ([9]; 125 g ai/ha): 0
Plant response rating, Barnyardgrass ([9]; 500 g ai/ha): 0
Plant response rating, Crabgrass, Large ([10]; 125 g ai/ha): 0
Plant response rating, Crabgrass, Large ([10]; 500 g ai/ha): 10
Plant response rating, Foxtail, Giant ([11]; 125 g ai/ha): 0
Plant response rating, Foxtail, Giant ([11]; 500 g ai/ha): 0
Plant response rating, Morningglory ([12]; 125 g ai/ha): 0
Plant response rating, Morningglory ([12]; 500 g ai/ha): 0
Plant response rating, Pigweed ([13]; 125 g ai/ha): 0
Plant response rating, Pigweed ([13]; 500 g ai/ha): 0
Plant response rating, Velvetleaf ([14]; 125 g ai/ha): 0
Plant response rating, Velvetleaf ([14]; 500 g ai/ha): 0
Plant response rating, Wheat ([15]; 125 g ai/ha): 0
Plant response rating, Wheat ([15]; 500 g ai/ha): 0
Plant response rating, Corn (corn (Zea mays) [16]; 125 g ai/ha): 0
Plant response rating, Corn (corn (Zea mays) [16]; 500 g ai/ha): 0
Plant response rating (rice (Oryza sativa)): 0
Plant response rating [17]: 0
Plant response rating [18]: 0
Plant response rating [19]: 0
